Entries after “also recorded” stand apart in the source; their conditions may differ.
What was measured:
[1] = test system: PSMA+ PC-3 PIP and PSMA- PC-3 flu tumors; test: PET-CT imaging of NOD/SCID mice bearing PSMA+ PC-3 PIP and PSMA- PC-3 flu tumors; format: in vivo
Procedure: FIG. 8A, FIG. 8B, FIG. 8C, and FIG. 8D show positron emission tomography-computed tomography (PET-CT) images in male NOD-SCID mice injected with the radiolabeled [^18F]XY-20 compound at (FIG. 8A) 5-15 minutes, (FIG. 8B) 15-25 minutes, (FIG. 8C) 25-35 minutes and (FIG. 8D) 50-60 minutes after injection; the mice on the right in each panel were pretreated with ZJ43 and the mice on the left in each panel were not pretreated with ZJ43. The green arrows point to the PSMA-negative PC3-flu tumor and the red arrows point to the PSMA-expressing (PC3-PIP) tumor (target); 200 microCi of radiotracer was injected;
Dynamic and whole-body PET and CT images were acquired on an eXplore VISTA small-animal PET (GE Healthcare) and an X-SPECT small SPECT/CT system (Gamma Medica Ideas), respectively. For imaging studies, anesthesia was induced with 3% and maintained under 1.5% isoflurane (v/v) in oxygen. PET or PET-CT imaging studies were performed on NOD/SCID mice bearing PSMA+PC-3 PIP and PSMA-PC-3 flu tumors. Following intravenous injection of [^18F]12 ([^18F]XY-20) PET images were acquired at 10 min, 30 min, 1 h, 2 h and 4 h p.i. as a pseudodynamic scan, i.e., a sequence of successive whole-body images were acquired in two bed positions. The dwell time at each bed position was 10 min for a total scan time of 20 minutes. An energy window of 250-700 keV was used. […]

[2] = test system: PSMA+ PC-3 PIP and PSMA- PC-3 flu tumors; test: Ex vivo biodistribution in mice bearing PSMA+ PC-3 PIP and PSMA- PC-3 flu xenografts; details: for Biodistribution, PC-3 Pip tumor: PSMA+ PC-3 PIP tumor; for Biodistribution, PC-3 flu tumor: PSMA- PC-3 flu tumor; for Biodistribution, Lrg int.: large intestine; for Biodistribution, Sm. int.: small intestine
PC-3 PIP (PSMA+) cells = test: In vitro stability studies (TLC of radiometabolites) in PC-3 PIP and PC-3 flu cells; details: 30 minutes incubation, PC-3 PIP vs PC-3 flu cells

Structure (SMILES): O=C(O)CC[C@H](NC(=O)O[C@@H](CCCCNC(=O)c1ccc([18F])cc1)C(=O)O)C(=O)O [[^18F]12]
- tumor uptake on co-injection with an excess of competing inhibitor ZJ-43 [1]: complete blockade of tumor uptake
- tumor and kidney uptake and clearance (pharmacokinetics in words) ([2]; PC-3 PIP tumor mice): modest PSMA+PC-3 PIP tumor uptake but rapidly cleared from both PC-3 PIP tumor and normal tissues including kidneys
- Biodistribution, PC-3 Pip tumor ([2]; 30 min, N = 7): 6.33±1.55 percent injected dose/gram
- Biodistribution, PC-3 Pip tumor ([2]; 60 min, N = 4): 3.52 ± 1.48 percent injected dose/gram
- Biodistribution, PC-3 Pip tumor ([2]; 90 min, N = 4): 0.94 ± 0.24 percent injected dose/gram
- Biodistribution, PC-3 Pip tumor ([2]; 180 min, N = 4): 0.22 ± 0.07 percent injected dose/gram
- Biodistribution, PC-3 flu tumor ([2]; 30 min, N = 7): 1.89 ± 0.78 percent injected dose/gram
- Biodistribution, PC-3 flu tumor ([2]; 60 min, N = 4): 0.72 ± 0.12 percent injected dose/gram
- Biodistribution, PC-3 flu tumor ([2]; 90 min, N = 4): 0.37 ± 0.08 percent injected dose/gram
- Biodistribution, PC-3 flu tumor ([2]; 180 min, N = 4): 0.12 0.03 percent injected dose/gram
- clearance of radioactivity from organs ([2]; after 30 min): radioactivity rapidly cleared from all organs including PC-3 PIP tumor
- Biodistribution, bladder ([2]; 30 min, N = 7): 22.4 ± 22.5 percent injected dose/gram
- Biodistribution, bladder ([2]; 60 min, N = 4): 5.50 ± 3.45 percent injected dose/gram
- Biodistribution, bladder ([2]; 90 min, N = 4): 2.11 ± 1.21 percent injected dose/gram
- Biodistribution, bladder ([2]; 180 min, N = 4): 2.74 ± 0.48 percent injected dose/gram
- Biodistribution, blood ([2]; 30 min, N = 7): 2.51 ± 1.75 percent injected dose/gram
- Biodistribution, blood ([2]; 60 min, N = 4): 1.07 ± 0.26 percent injected dose/gram
- Biodistribution, blood ([2]; 90 min, N = 4): 0.20 ± 0.14 percent injected dose/gram
- Biodistribution, blood ([2]; 180 min, N = 4): 0.08 ± 0.06 percent injected dose/gram
- Biodistribution, bone ([2]; 30 min, N = 7): 2.05 ± 2.39 percent injected dose/gram
- Biodistribution, bone ([2]; 60 min, N = 4): 0.72 ± 0.31 percent injected dose/gram
- Biodistribution, bone ([2]; 90 min, N = 4): 0.79 ± 0.16 percent injected dose/gram
- Biodistribution, bone ([2]; 180 min, N = 4): 0.63 ± 0.14 percent injected dose/gram
- Biodistribution, fat ([2]; 30 min, N = 7): 1.23 ± 1.88 percent injected dose/gram
- Biodistribution, fat ([2]; 60 min, N = 4): 0.15 ± 0.05 percent injected dose/gram
- Biodistribution, fat ([2]; 90 min, N = 4): 0.11 ± 0.06 percent injected dose/gram
- Biodistribution, fat ([2]; 180 min, N = 4): 0.04 ± 0.02 percent injected dose/gram
- Biodistribution, heart ([2]; 30 min, N = 7): 1.12 ± 0.74 percent injected dose/gram
- Biodistribution, heart ([2]; 60 min, N = 4): 0.25 ± 0.08 percent injected dose/gram
- Biodistribution, heart ([2]; 90 min, N = 4): 0.11 ± 0.02 percent injected dose/gram
- Biodistribution, heart ([2]; 180 min, N = 4): 0.07 ± 0.04 percent injected dose/gram
- Biodistribution, kidney ([2]; 30 min, N = 7): 14.2 ± 8.47 percent injected dose/gram
- Biodistribution, kidney ([2]; 60 min, N = 4): 6.97 ± 7.02 percent injected dose/gram
- Biodistribution, kidney ([2]; 90 min, N = 4): 1.51 ± 0.22 percent injected dose/gram
- Biodistribution, kidney ([2]; 180 min, N = 4): 0.50 ± 0.18 percent injected dose/gram
- Biodistribution, Lrg int. ([2]; 30 min, N = 7): 3.82 ± 5.87 percent injected dose/gram
- Biodistribution, Lrg int. ([2]; 60 min, N = 4): 0.62 ± 0.27 percent injected dose/gram
- Biodistribution, Lrg int. ([2]; 90 min, N = 4): 0.18 ± 0.03 percent injected dose/gram
- Biodistribution, Lrg int. ([2]; 180 min, N = 4): 0.16 ± 0.05 percent injected dose/gram
- Biodistribution, liver ([2]; 30 min, N = 7): 11.0 ± 1.77 percent injected dose/gram
- Biodistribution, liver ([2]; 60 min, N = 4): 12.5 ± 3.01 percent injected dose/gram
- Biodistribution, liver ([2]; 90 min, N = 4): 11.0 ± 0.87 percent injected dose/gram
- Biodistribution, liver ([2]; 180 min, N = 4): 4.62 ± 3.80 percent injected dose/gram
- Biodistribution, lung ([2]; 30 min, N = 7): 2.07 ± 1.51 percent injected dose/gram
- Biodistribution, lung ([2]; 60 min, N = 4): 0.85 ± 0.55 percent injected dose/gram
- Biodistribution, lung ([2]; 90 min, N = 4): 0.33 ± 0.05 percent injected dose/gram
- Biodistribution, lung ([2]; 180 min, N = 4): 0.14 ± 0.04 percent injected dose/gram
- Biodistribution, muscle ([2]; 30 min, N = 7): 0.86 ± 0.81 percent injected dose/gram
- Biodistribution, muscle ([2]; 60 min, N = 4): 0.27 ± 0.12 percent injected dose/gram
- Biodistribution, muscle ([2]; 90 min, N = 4): 0.06 ± 0.01 percent injected dose/gram
- Biodistribution, muscle ([2]; 180 min, N = 4): 0.03 ± 0.01 percent injected dose/gram
- Biodistribution, Sm. int. ([2]; 30 min, N = 7): 1.89 ± 1.58 percent injected dose/gram
- Biodistribution, Sm. int. ([2]; 60 min, N = 4): 0.54 ± 0.19 percent injected dose/gram
- Biodistribution, Sm. int. ([2]; 90 min, N = 4): 0.27 ± 0.11 percent injected dose/gram
- Biodistribution, Sm. int. ([2]; 180 min, N = 4): 0.08 ± 0.04 percent injected dose/gram
- Biodistribution, spleen ([2]; 30 min, N = 7): 3.76 ± 6.48 percent injected dose/gram
- Biodistribution, spleen ([2]; 60 min, N = 4): 0.45 ± 0.31 percent injected dose/gram
- Biodistribution, spleen ([2]; 90 min, N = 4): 0.27 ± 0.04 percent injected dose/gram
- Biodistribution, spleen ([2]; 180 min, N = 4): 0.13 ± 0.08 percent injected dose/gram

Structure (SMILES): O=C(O)CC[C@H](NC(=O)O[C@@H](CCCCNC(=O)c1ccc([125I])cc1)C(=O)O)C(=O)O [[^125I]31, (S)-2-(((((S)-1-carboxy-5-(4-[^125I]iodobenzamido)pentyl)oxy)carbonyl)amino) pentanedioic acid]
- radiometabolites / metabolism in cells (PC-3 PIP (PSMA+) cells): Polar radiometabolite(s) in extracellular and intracellular fluid were only seen; also recorded: observed only in PSMA+PC-3 PIP cells

— patent US10736974B2, “Scaffolds and multifunctional intermediates for imaging PSMA and cancer therapy” (THE JOHNS HOPKINS UNIVERSITY, priority 2014, dated 2020)
